Data on 27 molecules can be found in ChEMBL document CHEMBL1955773, “Hit to lead SAR study on benzoxazole derivatives for an NPY Y5 antagonist” (Bioorg Med Chem Lett, 2012).

The nature of series [1]: Metabolic stability of the compound in rat microsomes assessed as compound remaining after 30 mins. Format: ADME, Microsome. The settings on record: read-out: Stability.
Series [2] is described as follows: Total clearance in rat at 0.5 mg/kg, iv and 1 mg/kg, po. Type of series: ADME, organism-based. The note with it: in vivo.
Series [3] in a line: Cmax in rat at 0.5 mg/kg, iv and 1 mg/kg, po. Format: ADME, organism-based. The note with it: in vivo.
The nature of series [4]: AUC (0 to infinity) in rat at 0.5 mg/kg, iv and 1 mg/kg, po. Type of series: ADME, organism-based. The settings on record: plasma.
The nature of series [5]: Volume of distribution at steady state in rat at 0.5 mg/kg, iv and 1 mg/kg, po. Format: ADME, organism-based. The settings on record: in vivo, read-out: Vdss.
Series [6] is described as follows: Bioavailability in rat at 0.5 mg/kg, iv and 1 mg/kg, po. The note with it: in vivo. Type of series: ADME, organism-based.
Series [7] is described as follows: Ratio drug uptake in brain to plasma of rat at 1 mg/kg, po. Format: ADME, organism-based. More on the design: dose 1 mg/kg, route oral. The settings on record: read-out: BPR.
Series [8] concerns Cerebrospinal fluid. The experiment in a line: Drug uptake in rat cerebrospinal fluid at 0.5 mg/kg, iv and 1 mg/kg, po. Format: ADME, organism-based. The note with it: in vivo, read-out: Drug uptake.

Consider `CCS(=O)(=O)c1ccc2oc(Nc3ccc(C(F)(F)F)cc3)nc2c1`, for which the remaining at 0.5 h in series [1] is 101%.
With `CCOc1ccc(Nc2nc3cc(NS(=O)(=O)CC)ccc3o2)cc1`, the remaining at 0.5 h in series [1] was 59%.
The same measure, in the same setting: the figure for `CCS(=O)(=O)c1ccc2oc(Nc3ccc(N4CCOCC4)nc3)nc2c1` is 81%.
Consider `CCS(=O)(=O)c1ccc2oc(NC3CCCCC3)nc2c1`, for which, in series [1], the remaining at 0.5 h stood at 45%.
Still for that read-out and setting: with `CCS(=O)(=O)c1ccc2oc(Nc3ccc(N4C[C@@H](C)O[C@@H](C)C4)c(F)c3)nc2c1` the figure was 61%.
The same measure, in the same setting: with `CCS(=O)(=O)c1ccc2oc(Nc3ccc(Cl)cc3)nc2c1` the figure was 81%; with `CCOc1ccc(Nc2nc3ccc(NS(=O)(=O)CC)cc3o2)cc1`, 86%.
The same measure, in the same setting: the figure for `CCS(=O)(=O)c1ccc2oc(Nc3ccccc3)nc2c1` is 53%.
As for `CCS(=O)(=O)c1ccc2oc(NCc3ccccc3)nc2c1`, the remaining at 0.5 h in series [1] was determined as 46%.
As for `CCOc1ccc(Nc2nc3cc(S(=O)(=O)C(C)(C)C)ccc3o2)cc1`, the remaining at 0.5 h in series [1] is 46%.
In the case of `CCS(=O)(=O)c1ccc2oc(Nc3ccc(OC(C)C)cc3)nc2c1`, in series [1], the remaining at 0.5 h came out at 73%. The same molecule displayed a clearance in series [2] of 66 mL/min/kg. Besides, the Cmax (commonly the highest concentration seen after dosing) in series [3] was found to be 6 ng/mL. For the same molecule, in series [4], the AUC(0-inf) (in general, total exposure, with the tail of the curve extrapolated) was determined as 40 ng·h/mL. Moreover, the Vd in series [5] was 2.62 L/kg. Further, the bioavailability (as a rule, dose-corrected exposure relative to a reference, in per cent) in series [6] turned out to be 16%. Moreover, the Kp in series [7] came to 2.63. For the same molecule, the concentration in series [8] is 8.8 nM.
With `CCS(=O)(=O)c1ccc2oc(Nc3ccc(N4C[C@@H](C)O[C@@H](C)C4)cc3)nc2c1`, the remaining at 0.5 h in series [1] was determined as 85%. This molecule also gave a clearance in series [2] of 33 mL/min/kg. Besides, in series [3], the peak concentration (Cmax) was 26 ng/mL. In addition, the AUC(0-inf) in series [4] is 260 ng·h/mL. Besides, in series [5], the Vd amounted to 1.74 L/kg. The same molecule registered a bioavailability in series [6] of 52%. Further, the Kp in series [7] turned out to be 0.64. Moreover, the concentration in series [8] stood at 15.9 nM.
`CCS(=O)(=O)c1ccc2oc(NC(C)(C)c3ccccc3)nc2c1`: in series [1], the remaining at 0.5 h was determined as 35%.
Regarding `CCOc1ccc(Nc2nc3cc(S(=O)(=O)C(C)C)ccc3o2)cc1`, in series [1], the remaining at 0.5 h was 49%.
Still for that read-out and setting: with `CCS(=O)(=O)c1ccc2oc(Nc3cccc(C(F)(F)F)c3)nc2c1` the figure was 63%; with `CCS(=O)(=O)c1ccc2oc(Nc3ccc(N4C[C@@H](C)O[C@@H](C)C4)nc3)nc2c1`, 59%.
On the same count and under the same terms, with `CCS(=O)(=O)c1ccc2oc(Nc3ccc(N4CCOCC4)cc3)nc2c1` the figure was 88%.
With `CCS(=O)(=O)c1ccc2oc(Nc3ccc(OC(F)(F)F)cc3)nc2c1`, in series [1], the remaining at 0.5 h was 97%.
On to `CCS(=O)(=O)c1ccc2oc(Nc3ccc(C(C)(C)C)cc3)nc2c1`, for which the remaining at 0.5 h in series [1] was 27%.
The same measure, in the same setting: with `CCS(=O)(=O)c1ccc2oc(NC3CCC(C(C)(C)C)CC3)nc2c1` (mixture of isomers) the figure was 1%; with `CCS(=O)(=O)c1ccc2oc(Nc3ccc(C(F)(F)F)cn3)nc2c1`, 97%; with `CCOc1ccc(Nc2nc3ccc(S(=O)(=O)CC)cc3o2)cc1`, 81%.
On to `CCS(=O)(=O)c1ccc2oc(Nc3ccccc3C(F)(F)F)nc2c1`, for which the remaining at 0.5 h in series [1] was found to be 68%.
In the case of `CCOc1ccc(Nc2nc3cc(S(C)(=O)=O)ccc3o2)cc1`, the remaining at 0.5 h in series [1] was 62%.
Consider `CCOc1ccc(Nc2nc3ccc(NS(=O)(=O)C(C)(C)C)cc3o2)cc1`, for which, in series [1], the remaining at 0.5 h stood at 57%.
Regarding `C[C@@H]1CN(c2ccc(Nc3nc4ccc(NS(=O)(=O)C(C)(C)C)cc4o3)cc2)C[C@H](C)O1`, in series [1], the remaining at 0.5 h was determined as 68%.
Still for that read-out and setting: the figure for `CCS(=O)(=O)c1ccc2oc(Nc3ccc(C(F)(F)F)nc3)nc2c1` is 99%.
